These results are taken from patent publication US6887889B2 (Pharmacopeia Drug Discovery, Inc., priority 2001, dated 2005).

What is called Ki is the dissociation constant of the complex between target and ligand, obtained from inhibition or displacement.

This assay deals with T1, hMCHR (Homo sapiens, UniProt Q99705).
T1 construct: host or cells: CHO (Chinese hamster ovary) cells, membranes
T1 sequence (Q99705 whole entry): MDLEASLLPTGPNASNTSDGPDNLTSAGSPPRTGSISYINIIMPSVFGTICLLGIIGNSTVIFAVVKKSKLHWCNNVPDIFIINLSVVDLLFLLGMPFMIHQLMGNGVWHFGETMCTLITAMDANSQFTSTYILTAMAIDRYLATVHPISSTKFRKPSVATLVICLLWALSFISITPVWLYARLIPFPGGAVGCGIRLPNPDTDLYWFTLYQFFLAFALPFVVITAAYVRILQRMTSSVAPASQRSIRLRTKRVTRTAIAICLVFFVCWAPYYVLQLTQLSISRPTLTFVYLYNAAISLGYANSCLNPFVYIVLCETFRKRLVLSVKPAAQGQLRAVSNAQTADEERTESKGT
The assay is described as follows: MCH Assay PCOP Protocol: [125I]-MCH binding to hMCHR-CHO membranes, WGA-SPA beads. As to conditions: hMCHR-CHO overexpressing membranes, 0.5 nM [125I]-MCH, 2 hours incubation. The method, then: A reaction mixture of 10 μg hMCHR-CHO overexpressing membranes (from Receptor Biology, Inc., Beltville, Md., or internally produced) and 100 μg/well WGA-SPA beads (from Amersham Pharmacia Biotech, Inc., Piscataway, N.J.)/100 μL was prepared in MCHR assay buffer (25 mM HEPES, pH 7.4, 10 mM NaCl, 10 mM MgCl2, 5 mM MnCl2, 0.1%BSA). […] The assay plates were shaken for 5 minutes on a plate shaker, then incubated for 2 hours before cpm/well were determined in a Microbeta Trilux counter (from Perkin Elmer Wallac, Inc., Gaithersburg, Md.).
The compound `CC(C)N1CCC(CNC(=O)Nc2cc(Cl)cc(Cl)c2)(c2ccc(-c3ccc4c(c3)OCO4)cc2)CC1` [Example 82] yielded a Ki of 0.0002 to 0.01 µM.
As for `O=C(NCC1(c2ccc(-c3cccc(Cl)c3)cc2)CCN(CC2CC2)CC1)Nc1cc(Cl)cc(Cl)c1` [Example 70], the Ki lay within 0.0002 to 0.01 µM.
In turn, `COCCN1CCC(CNCc2cc(Cl)cc(Cl)c2)(c2ccc(-c3cccc(C#N)c3)cc2)CC1` [Example 127] had an inhibitory constant (Ki) of 0.101 to 5.5 µM.
As to `CC(C)CN1CCC(CNC(=O)Nc2cc(Cl)cc(Cl)c2)(c2ccc(-c3cccc(C#N)c3)cc2)CC1` [Example 7, 1-[4-(3′-Cyano-biphenyl-4-yl)-1-isobutyl-piperidin-4-ylmethyl]-3-(3,5-dichloro-phenyl)-urea], the Ki lay in the range of 0.011 to 0.1 µM.
In turn, `CCCNCC1(c2ccc(-c3cccc(C#N)c3)cc2)CCN(C(=O)Nc2cc(Cl)cc(Cl)c2)CC1` [Example 134] registered an inhibition constant Ki of 0.011 to 0.1 µM.
For the compound `COCCN1CCC(CNC(=O)Nc2cc(Cl)cc(Cl)c2)(c2ccc(-c3ccc4c(c3)OCO4)cc2)CC1` [Example 33], the Ki lay within 0.011 to 0.1 µM.
`CCCN1CCC(CNC(=O)Nc2cc(C(F)(F)F)ccc2Cl)(c2ccc(-c3cccc(Cl)c3)cc2)CC1` [Example 58] returned a Ki of 0.101 to 5.5 µM.
`COCCN1CCC(CNC(=O)Nc2cc(F)cc(C(F)(F)F)c2)(c2ccc(-c3cccc(C#N)c3)cc2)CC1` [Example 89] came in with a Ki of 0.0002 to 0.01 µM.
The compound `Cc1ccc(C2(CNC(=O)Nc3cc(Cl)cc(Cl)c3)CCN(CC3CC3)CC2)cc1` [Example 25] displayed an inhibition constant (Ki) of 0.101 to 5.5 µM.
For the compound `CN1CCC2(CC1)CN(C(=O)Nc1ccc(F)c(Cl)c1)c1cccc(-c3cccc(C#N)c3)c12` [Example 75], the Ki was in the range of 0.101 to 5.5 µM.
`CN1CCC(CNC(=O)Nc2cc(C(F)(F)F)ccc2Cl)(c2ccc(-c3cccc(C#N)c3)cc2)CC1` [Example 69] yielded a Ki of 0.011 to 0.1 µM.
In turn, `CCCCN1CCC(CNC(=O)Nc2cc(Cl)cc(Cl)c2)(c2ccc(-c3cccc(Cl)c3)cc2)CC1` [Example 113] gave a Ki of 0.011 to 0.1 µM.
For the compound `Cc1ccc(C2(CNC(=O)Nc3cc(Cl)cc(Cl)c3)CCN(C3CCCC3)CC2)cc1` [Example 26], the inhibition constant Ki lay in the range of 0.101 to 5.5 µM.
As to `O=C(Nc1cc(Cl)cc(Cl)c1)N1CCC(CNCC2CC2)(c2ccc(-c3ccc4c(c3)OCO4)cc2)CC1` [Example 125], the Ki was 0.101 to 5.5 µM.
In turn, `N#Cc1cccc(-c2ccc(C3(CNCC4CC4)CCN(C(=O)Nc4cc(Cl)cc(Cl)c4)CC3)cc2)c1` [Example 131] came in with a Ki of 0.011 to 0.1 µM.
The compound `COCCN1CCC(CNC(=O)Nc2ccc(F)c(F)c2)(c2ccc(-c3cccc(C#N)c3)cc2)CC1` [Example 91] gave an inhibitory constant (Ki) of 0.0002 to 0.01 µM.
`O=C(NCC1(c2ccc(-c3cccnc3)cc2)CCN(C2CCCC2)CC1)Nc1cc(Cl)cc(Cl)c1` [Example 20] yielded a Ki of 0.0002 to 0.01 µM.
Regarding `CN1CCC(CNC(=O)Nc2ccc(Cl)cc2Cl)(c2ccc(-c3cccc(C#N)c3)cc2)CC1` [Example 36], the Ki lay in the range of 0.011 to 0.1 µM.
Regarding `CCCN1CCC(CNC(=O)Nc2cc(Cl)cc(Cl)c2)(c2ccc(-c3cccc(Cl)c3)cc2)CC1` [Example 74], the Ki is 0.0002 to 0.01 µM.
As for `CN1CCC(CNC(=O)c2cc(Cl)cc(Cl)c2)(c2ccc(-c3cccc(Cl)c3)cc2)CC1` [Example 72], the Ki lay within 0.101 to 5.5 µM.
The compound `CCCN1CCC2(CC1)CN(C(=O)Nc1ccc(F)c(Cl)c1)c1ccc(-c3cccc(C#N)c3)cc12` [Example 46] yielded a Ki of 0.101 to 5.5 µM.
As to `CN1CCC(CNC(=O)Nc2cc(Cl)cc(Cl)c2)(c2ccc(-c3cccc(N)c3)cc2)CC1` [Example 41], the Ki lay within 0.011 to 0.1 µM.
